Here are results for six compounds from article PMC10673615, “Quercetin-1,2,3-Triazole Hybrids as Multifunctional Anti-Alzheimer’s Agents” (Molecules, 2023).

In data set [1] the test system is MCF-7 cells. In words: in vitro. The procedure:
(§1) Given the importance of oxidative stress-induced apoptosis of neuronal cells in AD, we present here a study to investigate the effect of quercetin-1,2,3-triazole hybrids on H2O2-induced oxidative damage in cultured MCF-7 cells, used as a human cell model. Viability was assessed with the WST-1 test in the absence and in the presence of an oxidative stressor (10^−4 M H2O2).
(§2) MCF-7 (Human breast adenocarcinoma (MERCK—# 86012803-DNA-5UG), Database Name: ECACC collection, Accession Numbers: 86012803) was the cell line elected as a cell injury model for the study of the potential protective effect of the butyrylcholinesterase inhibitors (hybrids) against hydrogen peroxide-induced oxidative stress. Cytotoxicity of the hybrids was also evaluated.
(§3) The compounds to be tested were firstly dissolved in dimethyl sulfoxide (DMSO) at a concentration of 4 × 10^−2 M. They were then diluted in cell growth media (EMEM) (supplemented with FBS 10%) with 0.25% DMSO to obtain solutions between 6.25 and 50.00 µM.
(§4) Eagle’s Minimum Essentia Medium (EMEM), including 10% fetal bovine serum (FBS), 100 IU/mL penicillin, and 100 μg/mL streptomycin, was used to culture MCF-7 cells at 37 °C in 5% CO2 atmosphere incubator with media replenished every 2 days. A total of 5 × 10^3 cells were cultured in 96-well plates and incubated for 72 h prior to stimulus application.
(§5) The culture medium was subsequently replaced with different final concentrations (6.25–50 μM) of the compounds to be tested. Negative controls were prepared, incubating cells in culture media.
(§6) Parallel experiments were performed for cytotoxicity assessment and for protective effect against hydrogen peroxide-induced oxidative stress evaluation. First, 10 μL of PBS was added in the designated wells; second, 10 μL of H2O2 (reaching a final concentration of 100 µM) was added. Following a 2 h incubation period at 37 °C in 5% CO2 atmosphere incubator, cellular viability was measured by adding WST-1 dehydrogenases substrate and incubating for 1 h, and the amount of formazan dye produced was evaluated by measuring the absorbance at 440 nm.

Data set [2] concerns MCF-7 cells. Briefly: Protective assay against hydrogen peroxide-induced oxidative stress in MCF-7 cells. The data set is classed as cell-based, Human. The following applies: 100 µM H2O2, 2 h. The procedure:
as §1, §2, §5, §6

In a further data set the test system is Artemia salina. Briefly: Artemia salina lethal toxicity assay. Format: in vivo. The following applies: for LC50: Artemia salina nauplii; for concentrations without toxicity: Artemia salina. The procedure: (§7) Artemia salina was used for in vivo general toxicity assessment of the promising hybrids IVb, IVd, and IIf; the results are shown in Table 4 and Figure 7. K2Cr2O7 was used as a control. Hybrid IVd presented the lowest toxicity.
(§8) The ARTOXKIT M protocol was used. The percentage of dyed nauplii of Artemia salina, grown in the presence of variable concentrations of the inhibitor compounds, was measured to determine the LC50 values. A test with K2Cr2O7 was used for quality control.

A further data set addresses T1, eeAChE (Electrophorus electricus, UniProt O42275).
T1 construct: catalogue number not given
Briefly: Ellman cholinesterase inhibitory assay, eeAChE screening. The data set is classed as biochemical. The following applies: compound 100 µM; substrate 3 mM. The procedure: (§9) Firstly, the inhibitory activity of the quercetin-1,2,3-triazole hybrids I–IV was screened in vitro on eeAChE and eqBuChE at a concentration of 100 μM (these enzymes are considered as models of the human isoform). The ChE inhibitory activity of all compounds was evaluated using the method of Ellman.
(§10) The inhibitory activities of title compounds against commercially available cholinesterases (eeAChE) (Electrophorus electricus, Type V-S), eqBuChE (equine serum), were conducted using minor modifications of Ellman’s assay. Nine different concentrations ([…], 37.5, 75, 150, and 300 μM in H2O:DMSO (50:50)) of each test compound were used to determine the enzyme-inhibition activity. Briefly, 55 μL of 50 mM Tris-HCl buffer at pH 8, 25 μL of eqBuChE (0.03 U/mL), 20 μL of the test or standard compounds, and 125 μL of DTNB (0.8 mM) were incubated in 96-well plates at 37 °C for 15 min. Further, 25 μL of the substrate, BTCI (0.8 mM), was added, and the solution was incubated for additional 15 min. Finally, the absorbance was measured at 412 nm wavelength using a Microplate Spectrophotometry (TriStar® S LB 942 model instrument). The IC50 values were determined from the absorbance obtained for various concentrations of the test and the standard compounds. All determinations were performed in triplicate.
(§11) To determine the % of inhibition ([I] = 100 μM), the substrate concentration (acetylthiocholine iodide for AChE; S-butyrylthiocholine iodide for BuChE) was fixed at 3 mM.

The nature of data set [3]: DPPH radical scavenging antioxidant assay. The procedure: To assess the antioxidant activity of hybrids IVa–e, IIf and quercetin, the 2,2-diphenyl-1-[…] (DPPH) radical scavenging colorimetric method was used, which is one of the most widely used methods for determining antioxidant activity. In this method, antioxidants react with DPPH (which has a strong violet color) and convert it into yellow diphenylpicrylhydrazine. Compounds were assayed in the range of concentrations from 3 to 200 μg/mL. Ascorbic acid was used as positive control. […] Another piece of evidence is the similarity between the % inhibition values of hybrids IVa,b and IVd,e and quercetin.
The colorimetric DPPH assay was carried out as described in [33]. […] In brief, 30 μL of a test compound (in MeOH) was mixed with 200 μL of DPPH (100 μM in methanol) in a 96-well plate in triplicate. After 30 min incubation at room temperature in the absence of light, the absorbances were measured at 517 nm using Microplate Spectrophotometry (TriStar® S LB 942 model instrument). The free radical scavenging activity results are expressed as a percentage of DPPH inhibition according to the following formula:
% of Inhibition = 100[(A(Blank) − A(sample))/A(blank)], where A(blank) consists of methanol (30 μL) mixed with DPPH (200 μL) absorbance, and A(sample) is the absorbance value for the added sample concentration compound mixed with DPPH. Ascorbic acid was used as a positive control.

Data set [4] in a line: Artemia salina lethal toxicity assay. The following applies: Artemia salina, in vivo, other: grown in the presence of the compound, Artemia salina nauplii. Format: in vivo. The procedure: as §7, §8
Data set [5] deals with T2, eqBuChE (Equus caballus, UniProt P81908).
T2 construct: equine serum butyrylcholinesterase (eqBuChE); purchased Sigma-Aldrich (lyophilized powder, 10.9 U/mg); host or cells: equine serum
T2 sequence (P81908 whole entry): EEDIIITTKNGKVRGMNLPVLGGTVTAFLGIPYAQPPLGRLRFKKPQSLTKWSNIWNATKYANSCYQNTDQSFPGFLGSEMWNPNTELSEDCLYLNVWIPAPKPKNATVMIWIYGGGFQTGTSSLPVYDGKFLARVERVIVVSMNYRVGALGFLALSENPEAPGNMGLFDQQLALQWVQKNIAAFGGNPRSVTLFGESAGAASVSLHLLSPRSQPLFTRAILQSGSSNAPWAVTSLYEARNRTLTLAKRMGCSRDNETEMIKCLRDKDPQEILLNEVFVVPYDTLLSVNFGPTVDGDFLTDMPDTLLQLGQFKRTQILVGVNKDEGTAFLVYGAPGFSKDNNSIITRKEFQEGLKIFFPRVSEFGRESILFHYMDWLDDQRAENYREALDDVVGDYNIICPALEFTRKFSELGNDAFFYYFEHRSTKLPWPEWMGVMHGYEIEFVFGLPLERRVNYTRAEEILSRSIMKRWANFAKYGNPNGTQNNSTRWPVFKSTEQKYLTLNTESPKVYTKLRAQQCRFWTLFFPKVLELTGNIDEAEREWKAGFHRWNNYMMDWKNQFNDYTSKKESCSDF
In words: Kinetic study for the inhibition of eqBuChE (Lineweaver-Burk). Format: biochemical. The following applies: for Inhibition type / Ki: Lineweaver-Burk; for Ki: read-out: Ki (inhibitory constant). From the text: The interaction with the active center of the enzyme thus seems to be favored by the presence of polar groups. Hybrid IIf presented the smaller Ki (Table 3), binding to the enzyme with the higher affinity, which can be relevant for pharmacologic applications in the future.
Lineweaver–Burk plot (1/V vs. 1/[BTCI]) was used for determining the inhibition constants (Ki’s) and the mechanism of action.

Data set [6] addresses T2, eqBuChE. Briefly: Ellman cholinesterase inhibitory assay, eqBuChE (screening and IC50). Format: biochemical. The following applies: for inhibition at 100 µM: compound 100 µM, substrate 3 mM; for IC50: concentration range 1.2-300 µM, BTCI 0.8 mM, read-out: IC50 values for eqBuChE. The procedure:
as §9, §10, §11

Data set [7] relates to REM-138 cell line (canine breast cancer). Set-up: method as in doi:10.1055/s-0040-1719928. The following applies: REM cells; 72 h incubation; cited from earlier work.
The next data set can be described thus: in vitro. The following applies: human. The procedure:
as §1, §2, §3, §4, §5, §6

Molecules are shown by their SMILES. Where two headings read alike, the source gives them in different places.

T1 sequence (O42275 24-633): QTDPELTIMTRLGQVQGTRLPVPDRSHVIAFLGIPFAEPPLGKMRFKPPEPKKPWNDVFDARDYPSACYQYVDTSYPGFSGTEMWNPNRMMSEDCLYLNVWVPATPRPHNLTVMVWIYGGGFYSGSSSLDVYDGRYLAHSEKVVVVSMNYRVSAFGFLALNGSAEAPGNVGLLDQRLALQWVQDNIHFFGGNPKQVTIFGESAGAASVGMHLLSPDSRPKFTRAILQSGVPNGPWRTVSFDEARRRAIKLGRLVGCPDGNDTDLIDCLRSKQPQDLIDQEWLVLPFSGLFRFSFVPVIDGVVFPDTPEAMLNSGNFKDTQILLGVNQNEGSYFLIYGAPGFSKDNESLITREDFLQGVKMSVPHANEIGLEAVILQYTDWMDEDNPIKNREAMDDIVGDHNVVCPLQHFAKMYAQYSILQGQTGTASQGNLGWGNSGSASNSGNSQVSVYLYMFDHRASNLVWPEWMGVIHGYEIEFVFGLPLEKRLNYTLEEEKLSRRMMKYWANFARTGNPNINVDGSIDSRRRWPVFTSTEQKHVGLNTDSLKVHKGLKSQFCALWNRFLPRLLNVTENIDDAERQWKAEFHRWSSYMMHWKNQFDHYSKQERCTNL

Take `COc1ccc2c3c1O[C@H]1C[C@@H](O)C=C[C@@]31CCN(C)C2` [Galantamine, reference compound]: the “effect on cellular viability” value with MCF-7 cells [1] (concentrations tested 6.25-50 μM, MCF-7) is reported as “did not reduce cellular viability”. For the same compound, the “cellular antioxidant protection against H2O2” value with MCF-7 cells [2] is listed as “good antioxidant cellular protection”.
The LC50 is the concentration lethal to half of the exposed cells or organisms. `[K+].[K+].[O]=[Cr](=[O])([O-])[O][Cr](=[O])(=[O])[O-]` [Hybrid K2Cr2O7, K2Cr2O7, reference compound] returned an LC50 with Artemia salina (quality control) of 22.7 µg/mL.
A word on the inhibition: it is the drop in the measured response relative to a control, in per cent. Lower therefore signals a response near the control. Broadly, the Ki is a dissociation constant, usually derived from enzyme kinetics or from competition with a known ligand. Broadly, the IC50 is the concentration that gives 50% inhibition. As for `COc1cc(OC)c2c(=O)c(OCCCCn3cc(CN4C(=O)C(=O)c5ccccc54)nn3)c(-c3ccc(OC)c(OC)c3)oc2c1` [IIf, 1-((1-(4-((2-(3,4-Dimethoxyphenyl)-5,7-dimethoxy-4-oxo-4H-chromen-3-yl)oxy)butyl)-1H-1,2,3-triazol-4-yl)methyl)indoline-2,3-dione], the inhibition at 100 µM stood at 24.3% against eeAChE and 100% at eqBuChE [6]. For the same compound, the DPPH antioxidant activity result in [3] (3 to 200 μg/mL) is on record as “no antioxidant activity”. Besides, the 50% lethal concentration (LC50) in data set [4] worked out at 34.6 µM. In the data set with Artemia salina, the concentrations without toxicity is no more than 10 µM. The Inhibition type result on eqBuChE [5] is “competitive inhibition”. The Ki at eqBuChE [5] was found to be 6.2 µM. The Vmax app on eqBuChE [5] (inhibitor 5 µM) was found to be 11.8 U.mg^−1; on eqBuChE [5] (inhibitor 20 µM), 11.4 U.mg^−1; at eqBuChE [5] (inhibitor 40 µM), 13.4 U.mg^−1. Further, the “cellular antioxidant protection against H2O2” value in the data set with MCF-7 cells [2] was “equally effective in the antioxidant protection”. In addition, on eqBuChE [6], the 50% inhibitory concentration (IC50) stood at 11.2 µM.
`O=c1c(OCCCCn2cc(-c3ccccc3)nn2)c(-c2ccc(O)c(O)c2)oc2cc(O)cc(O)c12` [IVa, 2-(3,4-Dihydroxyphenyl)-5,7-dihydroxy-3-(4-(4-phenyl-1H-1,2,3-triazol-1-yl)butoxy)-4H-chromen-4-one] had an inhibition at 100 µM on eeAChE of 0%. Further, the cytotoxic concentration in data set [7] was greater than 10 µM. In addition, the “reduction of cellular viability” value in the data set with MCF-7 cells [1] (6.25 μM, MCF-7, 2 h, without H2O2) was found to be 40%. Further, in data set [3] (100 μg/mL), the DPPH antioxidant activity entry was “potent antioxidant activity”. For the same compound, at eqBuChE [6], the inhibition at 100 µM stood at 82.8% and the IC50 came out at 24.7 µM.
Take `O=c1c(OCCCCn2cc(C3CC3)nn2)c(-c2ccc(O)c(O)c2)oc2cc(O)cc(O)c12` [IVb, 3-(4-(4-Cyclopropyl-1H-1,2,3-triazol-1-yl)butoxy)-2-(3,4-dihydroxyphenyl)-5,7-dihydroxy-4H-chromen-4-one]: the inhibition at 100 µM at eeAChE came to 5.21%; against eqBuChE [6] it was 90.5%. Also, the cytotoxic concentration in data set [7] is listed as greater than 10 µM; with MCF-7 cells [1] (human, 2 h), greater than 25 µM. Also, in data set [3] (100 μg/mL), the DPPH antioxidant activity entry is “potent antioxidant activity”. The median lethal concentration (LC50) in data set [4] was 10 to 100 µM. In the data set on Artemia salina, this compound displayed a concentrations without toxicity of no more than 10 µM. Further, the Inhibition type result on eqBuChE [5] is “mixed type (non-competitive)”. Further, the Ki on eqBuChE [5] is 30 µM. For the same compound, the Vmax app on eqBuChE [5] (inhibitor 17.5 µM) was 7.5 U.mg^−1; at eqBuChE [5] (inhibitor 35 µM) it was 6.5 U.mg^−1; on eqBuChE [5] (inhibitor 70 µM) it was 4.5 U.mg^−1. In addition, the “cellular antioxidant protection against H2O2” value with MCF-7 cells [2] was “equally effective in the antioxidant protection”. For the same compound, the IC50 at eqBuChE [6] is 32.4 µM.
For orientation: EC50 means the midpoint of the concentration-response curve. A low value points to a more potent agent. In the case of `CC(C)(O)c1cn(CCCCOc2c(-c3ccc(O)c(O)c3)oc3cc(O)cc(O)c3c2=O)nn1` [IVd, 2-(3,4-Dihydroxyphenyl)-5,7-dihydroxy-3-(4-(4-(2-hydroxypropan-2-yl)-1H-1,2,3-triazol-1-yl)butoxy)-4H-chromen-4-one], the inhibition at 100 µM at eeAChE stood at 3.65%; against eqBuChE [6] it was 56.6%. Besides, in the data set “in vitro”, the 50% effective concentration (EC50) at 2 h is greater than 50 µM. For the same compound, in data set [3] (100 μg/mL), the DPPH antioxidant activity result is listed as “potent antioxidant activity”. In addition, the results for the median lethal concentration (LC50) (in [4]; in the data set on Artemia salina (read-out: LC50)) were greater than 100 µM and no less than 100 µM, respectively. For the same compound, the Inhibition type entry on eqBuChE [5] is listed as “competitive inhibition”. Further, at eqBuChE [5], the inhibition constant (Ki) came to 36 µM. The Vmax app was determined as 9.6 U.mg^−1 on eqBuChE [5] (inhibitor 17.5 µM) and 9.0 U.mg^−1 at eqBuChE [5] (inhibitor 35 µM). Moreover, the “cellular antioxidant protection against H2O2” value in the data set on MCF-7 cells [2] is recorded as “equally effective in the antioxidant protection”. The half-maximal inhibitory concentration (IC50) at eqBuChE [6] came to 39 µM.
